Read-outs that look alike come from different tables or passages of the source.
How the values were obtained:
NCI-H226 = assay: SRB anti-proliferative assay, NCI-H226, with CalcuSyn combination index (Example 1); assay type: cell-based; conditions: Homo sapiens, NCI-H226, 72 h, read-out: Zah. (inhibition of proliferation)
Description: (§1) Cells were thawed from ampoules stored in liquid nitrogen and cultured in petri dishes in appropriate culture medium according to Table 2, in a humidified 5% CO2 atmosphere at 37° C. Cells were passaged twice weekly using EDTA-Trypsin solution, pH 8. Counted cells with a viability of at least 90% as assessed with Trypan-Blue solution were used for anti-proliferative assays.
(§2) Twenty-four hours before the addition of the test compounds/combinations, cells were seeded into 384-well plates at 50 μL/well and a density of 10^3 cells/well, in the appropriate culture medium.
(§3) Solutions of the compounds were diluted in the test medium-RPMI-1640 and Opti-MEM in a 1:1 ratio, and the medium was supplemented with 2 mM glutamine and 5% fetal bovine serum FBS. After 72 h, colourimetric assessment of cell growth was performed by SRB. […] Unbound dye was removed by washing the plates (4×) in 1% (v/v) acetic acid, and protein-bound dye was extracted with 10 mM unbuffered Tris base and the optical density (A=540 nm) was determined in a BioTek Synergy H4 Hybrid computer microplate reader (BioTek Instruments USA). The entire washing/staining procedure was performed using a BioTek EL406 washing station (BioTek Instruments USA). The raw absorbance results were analysed in Microsoft Excel software using the formula:
(§4) [formula] • Where: • % Zahlnh-inhibition of proliferation • Am—absorbance of wells without cells (medium) • Ak—absorbance of control wells (cells treated with pure culture medium) • Ap—absorbance of wells treated with compounds
(§5) Each compound at the indicated concentrations was tested in triplicate in one experiment. Each experiment was repeated three times. Data analysis was supplemented with synergy assessment using CalcuSyn software. […] A CI value below 0.8 indicates synergism, 0.8-1.2 an additive effect, above 1.2 an antagonism.

NCI-H520 = assay: SRB anti-proliferative assay, NCI-H520, with CalcuSyn combination index (Example 1); assay type: cell-based; conditions: Homo sapiens, NCI-H520, 72 h, read-out: Zah. (inhibition of proliferation)
Description: as §1, §2, §3, §4, §5

8 cell lines = assay: SRB anti-proliferative assay, summary over the panel of 8 cell lines (Example III); assay type: cell-based, human; conditions: CI analysis not possible
Description: (§6) Cells were thawed from ampoules stored in liquid nitrogen and cultured in petri dishes in the appropriate culture medium according to Table 16, in a humidified 5% CO2 atmosphere at 37° C. Cells were passaged twice weekly using EDTA-Trypsin solution, pH 8, as a separating agent. Counted cells with a viability of at least 90% as assessed with Trypan-Blue solution were used for anti-proliferation assays.
(§7) Twenty-four hours before the addition of the test compounds/combinations, cells were seeded into 384-well plates at 50 μL/well and a density of 10^3 cells/well, in the appropriate culture medium. […] Solutions of the compounds were diluted in the test medium—RPMI-1640 and Opti-MEM in a 1:1 ratio, and the medium was supplemented with 2 mM glutamine and 5% fetal bovine serum FBS.
Unbound dye was removed by washing the plates (4×) in 1% (v/v) acetic acid, and protein-bound dye was extracted with 10 mM unbuffered Tris base and the optical density (A=540 nm) was determined in a BioTek Synergy H4 Hybrid computer microplate reader (BioTek Instruments USA). […] The raw absorbance results were analysed in Microsoft Excel software using the formula:
[formula] • Where: • % Zahlnh-inhibition of proliferation • Am—absorbance of wells without cells (medium) • Ak—absorbance of control wells (cells treated with pure culture medium) • Ap—absorbance of wells treated with compounds […]

Hs683 = assay: SRB anti-proliferative assay, Hs683, molecular combination and nanoparticles, with combination index (Example III); assay type: cell-based; conditions: Homo sapiens, Hs 683, 72 h, read-out: Zah. (inhibition of proliferation)
Description: as §6, §7
(§8) After 72 h, colourimetric assessment of cell growth was performed by SRB. […] Unbound dye was removed by washing the plates (4×) in 1% (v/v) acetic acid, and protein-bound dye was extracted with 10 mM unbuffered Tris base and the optical density (A=540 nm) was determined in a BioTek Synergy H4 Hybrid computer microplate reader (BioTek Instruments USA). The entire washing/staining procedure was performed using a BioTek EL406 washing station (BioTek Instruments USA). The raw absorbance results were analysed in Microsoft Excel software using the formula:
as §4, §5

SW1990 = assay: SRB anti-proliferative assay, SW1990, with CalcuSyn combination index (Example 1); assay type: cell-based; conditions: Homo sapiens, SW1990, 72 h, read-out: Zah. (inhibition of proliferation)
Description: as §1, §2, §3, §4, §5

NCI-H1975 = assay: SRB anti-proliferative assay, NCI-H1975, with CalcuSyn combination index (Example 1); assay type: cell-based; conditions: Homo sapiens, NCI-H1975, 72 h, read-out: Zah. (inhibition of proliferation)
Description: as §1, §2, §3, §4, §5

8MGBA = assay: SRB anti-proliferative assay, 8MGBA, molecular combination and nanoparticles, with combination index (Example III); assay type: cell-based; conditions: Homo sapiens, 8-MG-BA, 72 h
Description: as §6, §7, §8, §4, §5

C=CCNC1=C2C[C@@H](C)C[C@H](OC)[C@H](O)[C@@H](C)/C=C(\C)[C@H](OC(N)=O)[C@@H](OC)/C=C\C=C(/C)C(=O)NC(=CC1=O)C2=O [17AAG, 17-AAG (tanespimycin)]
inhibition at 0.0031 µM (NCI-H226): 19.3%
inhibition at 0.01 µM (NCI-H226): 27.3%
inhibition at 0.03 µM (NCI-H226): 32%
inhibition at 0.1 µM (NCI-H226): 43.8%
inhibition at 0.3124 µM (NCI-H226): 54.8%
inhibition at 1 µM (NCI-H226): 60.4%
inhibition at 3.1392 µM (NCI-H226): 71.9%
inhibition at 10 µM (NCI-H226): 72.6%
inhibition at 0.0031 µM (NCI-H520): 5.9%
inhibition at 0.01 µM (NCI-H520): 15.3%
inhibition at 0.03 µM (NCI-H520): 28.3%
inhibition at 0.1 µM (NCI-H520): 48.1%
inhibition at 0.3124 µM (NCI-H520): 56.8%
inhibition at 1 µM (NCI-H520): 59.9%
inhibition at 3.1392 µM (NCI-H520): 63.5%
inhibition at 10 µM (NCI-H520): 65.8%
17-AAG activity (8 cell lines): low
inhibition at 0.0003163 µM (Hs683): 8.3%
inhibition at 0.001 µM (Hs683): 50.3%
inhibition at 0.0032 µM (Hs683): 63%
inhibition at 0.01 µM (Hs683): 93.9%
inhibition at 0.0316 µM (Hs683): 79.2%
inhibition at 0.1 µM (Hs683): 82%
inhibition at 0.3163 µM (Hs683): 91%
inhibition at 1 µM (Hs683): 94.3%
inhibition at 0.0031 µM (SW1990): -0.2%
inhibition at 0.01 µM (SW1990): 5.7%
inhibition at 0.0314 µM (SW1990): 40.7%
inhibition at 0.1 µM (SW1990): 81.7%
inhibition at 0.3155 µM (SW1990): 90.6%
inhibition at 1 µM (SW1990): 92.9%
inhibition at 3.1546 µM (SW1990): 93.5%
inhibition at 10 µM (SW1990): 92.6%
inhibition at 0.0031 µM (NCI-H1975): 10%
inhibition at 0.01 µM (NCI-H1975): 25.2%
inhibition at 0.0314 µM (NCI-H1975): 66.7%
inhibition at 0.1 µM (NCI-H1975): 84.1%
inhibition at 0.3155 µM (NCI-H1975): 87.6%
inhibition at 1 µM (NCI-H1975): 88.5%
inhibition at 3.1546 µM (NCI-H1975): 88.4%
inhibition at 10 µM (NCI-H1975): 86.6%
inhibition at 0.0003163 µM (8MGBA; read-out: Zah. (inhibition of proliferation), 17AAG 0.3163 nM, Tables 18a/19a): -3.9%
inhibition at 0.0003163 µM (8MGBA; read-out: Zah. (inhibition of proliferation), 17AAG 0.3163 nM, Tables 21a/22a): 6%
inhibition at 0.001 µM (8MGBA; read-out: Zah. (inhibition of proliferation), 17AAG 1 nM, Tables 18a/19a): 9.8%
inhibition at 0.001 µM (8MGBA; read-out: Zah. (inhibition of proliferation), 17AAG 1 nM, Tables 21a/22a): 15.7%
inhibition at 0.0032 µM (8MGBA; read-out: Zah. (inhibition of proliferation), 17AAG 3.2 nM, Tables 18a/19a): 64.9%
inhibition at 0.0032 µM (8MGBA; read-out: Zah. (inhibition of proliferation), 17AAG 3.2 nM, Tables 21a/22a): 4.7%
inhibition at 0.01 µM (8MGBA; read-out: Zah. (inhibition of proliferation), 17AAG 10 nM, Tables 18a/19a): 89.5%
inhibition at 0.01 µM (8MGBA; read-out: Zah. (inhibition of proliferation), 17AAG 10 nM, Tables 21a/22a): 7.8%
inhibition at 0.0316 µM (8MGBA; read-out: Zah. (inhibition of proliferation), 17AAG 31.6 nM, Tables 18a/19a): 88.5%
inhibition at 0.0316 µM (8MGBA; read-out: Zah. (inhibition of proliferation), 17AAG 31.6 nM, Tables 21a/22a): 20.1%
inhibition at 0.1 µM (8MGBA; read-out: Zah. (inhibition of proliferation), 17AAG 100 nM, Tables 18a/19a): 84.3%
inhibition at 0.1 µM (8MGBA; read-out: Zah. (inhibition of proliferation), 17AAG 100 nM, Tables 21a/22a): 37.4%
inhibition at 0.3163 µM (8MGBA; read-out: Zah. (inhibition of proliferation), 17AAG 316.3 nM, Tables 18a/19a): 86%
inhibition at 0.3163 µM (8MGBA; read-out: Zah. (inhibition of proliferation), 17AAG 316.3 nM, Tables 21a/22a): 64.6%
inhibition at 1 µM (8MGBA; read-out: Zah. (inhibition of proliferation), 17AAG 1000 nM, Tables 18a/19a): 91.9%
inhibition at 1 µM (8MGBA; read-out: Zah. (inhibition of proliferation), 17AAG 1000 nM, Tables 21a/22a): 81.1%
inhibition at 0.0003163 µM (8MGBA; read-out: Zah. (inhibition of proliferation), 72 h, 17AAG 0.3163 nM): -3.9%
inhibition at 0.001 µM (8MGBA; read-out: Zah. (inhibition of proliferation), 72 h, 17AAG 1 nM): 9.8%
inhibition at 0.0032 µM (8MGBA; read-out: Zah. (inhibition of proliferation), 72 h, 17AAG 3.2 nM): 64.9%
inhibition at 0.01 µM (8MGBA; read-out: Zah. (inhibition of proliferation), 72 h, 17AAG 10 nM): 89.5%
inhibition at 0.0316 µM (8MGBA; read-out: Zah. (inhibition of proliferation), 72 h, 17AAG 31.6 nM): 88.5%
inhibition at 0.1 µM (8MGBA; read-out: Zah. (inhibition of proliferation), 72 h, 17AAG 100 nM): 84.3%
inhibition at 0.3163 µM (8MGBA; read-out: Zah. (inhibition of proliferation), 72 h, 17AAG 316.3 nM): 86%
inhibition at 1 µM (8MGBA; read-out: Zah. (inhibition of proliferation), 72 h, 17AAG 1000 nM): 91.9%

From US20260325487A1 (BS BIOTECHNA SPOLKA AKCYJNA, priority 2023, published 2026)
